The target in assay [1] is T1, BIKE (Homo sapiens, UniProt Q9NSY1, K320A/K321A).
T1 construct: gene BMP2K; BIKE38–345 (kinase domain)
The assay can be described thus: co-crystal structure ([…] Å); ITC; thermal shift. Type of assay: binding.

Assay [2] deals with T2, BIKE (Homo sapiens, UniProt Q9NSY1).
T2 construct: gene BMP2K; catalytic domain-containing construct
Description: biochemical. Set-up: Thermal shift assay (DSF, SYPRO Orange), 2 uM kinase domain, mean delta Tm of triplicates versus DMSO. To be noted: read-out: BIKE. On the procedure: (§1) All measurements were performed in triplicate and mean values were reported for all compounds (Table S1). […] However, NAKs are often omitted from selectivity panels, including commercial screens.

The next assay addresses T3, GAK (Homo sapiens, UniProt O14976).
T3 construct: catalytic domain-containing construct
T3 sequence (O14976 1-1311): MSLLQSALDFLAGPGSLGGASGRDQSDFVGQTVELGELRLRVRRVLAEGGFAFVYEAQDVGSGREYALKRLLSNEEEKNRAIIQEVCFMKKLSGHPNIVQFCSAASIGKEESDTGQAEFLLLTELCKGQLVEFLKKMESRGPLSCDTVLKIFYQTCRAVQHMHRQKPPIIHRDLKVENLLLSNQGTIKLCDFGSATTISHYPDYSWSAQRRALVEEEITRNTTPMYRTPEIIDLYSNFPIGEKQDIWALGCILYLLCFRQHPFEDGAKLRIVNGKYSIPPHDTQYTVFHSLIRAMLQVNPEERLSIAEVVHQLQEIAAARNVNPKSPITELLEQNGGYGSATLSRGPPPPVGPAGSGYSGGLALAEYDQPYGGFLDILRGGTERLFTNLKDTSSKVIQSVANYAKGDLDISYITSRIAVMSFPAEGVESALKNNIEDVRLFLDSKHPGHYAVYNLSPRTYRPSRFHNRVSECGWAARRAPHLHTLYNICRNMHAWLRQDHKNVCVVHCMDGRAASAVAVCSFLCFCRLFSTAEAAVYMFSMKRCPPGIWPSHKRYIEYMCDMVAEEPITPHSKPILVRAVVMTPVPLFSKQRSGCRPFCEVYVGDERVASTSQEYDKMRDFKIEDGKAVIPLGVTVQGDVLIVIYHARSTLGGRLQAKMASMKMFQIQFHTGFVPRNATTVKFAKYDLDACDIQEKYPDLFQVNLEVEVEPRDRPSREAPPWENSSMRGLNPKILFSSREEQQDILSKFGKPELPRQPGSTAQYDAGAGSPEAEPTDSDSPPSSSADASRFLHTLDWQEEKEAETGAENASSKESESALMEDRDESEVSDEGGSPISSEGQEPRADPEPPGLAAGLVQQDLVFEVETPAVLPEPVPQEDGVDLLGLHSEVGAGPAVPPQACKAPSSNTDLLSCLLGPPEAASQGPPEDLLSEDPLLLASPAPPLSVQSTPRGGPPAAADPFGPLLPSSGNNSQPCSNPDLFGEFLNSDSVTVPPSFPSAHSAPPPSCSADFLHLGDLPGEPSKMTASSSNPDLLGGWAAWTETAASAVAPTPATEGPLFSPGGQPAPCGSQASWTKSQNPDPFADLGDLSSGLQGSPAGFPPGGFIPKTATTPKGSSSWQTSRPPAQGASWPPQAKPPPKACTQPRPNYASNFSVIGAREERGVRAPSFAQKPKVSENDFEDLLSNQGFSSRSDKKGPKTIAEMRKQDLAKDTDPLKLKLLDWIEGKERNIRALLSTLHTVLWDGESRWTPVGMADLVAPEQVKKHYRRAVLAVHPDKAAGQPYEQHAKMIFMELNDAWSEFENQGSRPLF
Description: biochemical. Further details: Thermal shift assay (DSF, SYPRO Orange), 2 uM kinase domain, mean delta Tm of triplicates versus DMSO. To be noted: read-out: GAK. On the procedure:
as §1

Another assay has as its target T4, MPSK1 (Homo sapiens, UniProt O75716).
T4 construct: gene STK16; catalytic domain-containing construct
Description: biochemical. The note with it: for ΔTm at 12.5 µM: read-out: MPSK1. Set-up: Thermal shift assay (DSF, SYPRO Orange), 2 uM kinase domain, mean delta Tm of triplicates versus DMSO. Here is the method:
as §1

In assay [3] the target is T5, AAK1 (Homo sapiens, UniProt Q2M2I8). The assay can be described thus: ITC; thermal shift.
Assay [4] has as its target T5, AAK1. Description: biochemical. Set-up: kinase domain; Thermal shift assay (DSF, SYPRO Orange), 2 uM kinase domain, mean delta Tm of triplicates versus DMSO. To be noted: for ΔTm at 12.5 µM: read-out: AAK1. Here is the method:
as §1

T2 sequence (Q9NSY1 whole entry, the tested form may be a part): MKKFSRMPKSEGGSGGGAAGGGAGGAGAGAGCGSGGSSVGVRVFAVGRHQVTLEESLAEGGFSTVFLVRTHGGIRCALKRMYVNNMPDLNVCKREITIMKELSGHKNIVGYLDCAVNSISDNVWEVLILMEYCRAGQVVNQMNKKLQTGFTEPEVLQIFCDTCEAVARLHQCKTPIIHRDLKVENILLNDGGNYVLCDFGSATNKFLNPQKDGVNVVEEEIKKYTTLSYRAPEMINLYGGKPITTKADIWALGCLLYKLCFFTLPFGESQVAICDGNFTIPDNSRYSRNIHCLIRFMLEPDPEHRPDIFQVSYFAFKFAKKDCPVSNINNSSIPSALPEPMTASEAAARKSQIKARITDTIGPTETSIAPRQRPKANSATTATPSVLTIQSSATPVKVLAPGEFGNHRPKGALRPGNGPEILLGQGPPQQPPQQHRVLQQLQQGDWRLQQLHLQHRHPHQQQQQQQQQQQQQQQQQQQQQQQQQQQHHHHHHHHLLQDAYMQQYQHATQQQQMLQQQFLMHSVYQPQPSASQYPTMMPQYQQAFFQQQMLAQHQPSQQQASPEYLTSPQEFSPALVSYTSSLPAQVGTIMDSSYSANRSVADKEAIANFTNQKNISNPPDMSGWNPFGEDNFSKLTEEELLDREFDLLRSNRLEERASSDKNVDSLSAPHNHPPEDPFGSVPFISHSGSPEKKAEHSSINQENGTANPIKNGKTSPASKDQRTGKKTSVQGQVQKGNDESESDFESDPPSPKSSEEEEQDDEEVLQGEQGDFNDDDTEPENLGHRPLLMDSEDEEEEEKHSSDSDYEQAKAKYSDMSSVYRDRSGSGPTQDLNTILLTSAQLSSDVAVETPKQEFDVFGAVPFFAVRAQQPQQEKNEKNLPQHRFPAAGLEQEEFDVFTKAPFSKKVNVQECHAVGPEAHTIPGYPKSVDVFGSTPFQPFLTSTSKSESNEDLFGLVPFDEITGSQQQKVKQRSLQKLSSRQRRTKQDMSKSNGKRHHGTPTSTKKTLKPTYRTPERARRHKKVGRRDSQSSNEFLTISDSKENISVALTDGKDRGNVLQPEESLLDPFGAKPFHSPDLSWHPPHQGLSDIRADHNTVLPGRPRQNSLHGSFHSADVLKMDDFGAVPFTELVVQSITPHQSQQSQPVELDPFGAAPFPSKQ
T5 sequence (Q2M2I8 27-365 limits assumed): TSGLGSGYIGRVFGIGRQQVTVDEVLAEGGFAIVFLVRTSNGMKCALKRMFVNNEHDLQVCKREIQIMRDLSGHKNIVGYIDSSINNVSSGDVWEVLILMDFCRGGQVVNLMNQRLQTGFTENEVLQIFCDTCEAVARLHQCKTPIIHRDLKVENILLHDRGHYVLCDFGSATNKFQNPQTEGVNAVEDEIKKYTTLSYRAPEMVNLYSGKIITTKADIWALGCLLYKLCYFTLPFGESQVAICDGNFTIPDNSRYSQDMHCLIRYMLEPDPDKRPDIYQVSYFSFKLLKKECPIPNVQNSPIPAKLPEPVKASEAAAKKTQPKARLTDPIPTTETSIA
T4 sequence (O75716 whole entry, the tested form may be a part): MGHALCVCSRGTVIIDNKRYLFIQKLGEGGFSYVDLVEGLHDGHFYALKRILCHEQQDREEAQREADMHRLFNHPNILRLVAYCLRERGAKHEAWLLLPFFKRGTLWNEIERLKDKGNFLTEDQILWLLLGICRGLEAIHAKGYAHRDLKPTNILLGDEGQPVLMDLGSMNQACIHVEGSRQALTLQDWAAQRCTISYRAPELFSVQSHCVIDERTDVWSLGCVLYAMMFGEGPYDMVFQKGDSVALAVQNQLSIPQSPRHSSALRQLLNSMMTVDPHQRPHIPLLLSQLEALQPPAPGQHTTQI
T1 sequence (Q9NSY1 38-345 K320A/K321A): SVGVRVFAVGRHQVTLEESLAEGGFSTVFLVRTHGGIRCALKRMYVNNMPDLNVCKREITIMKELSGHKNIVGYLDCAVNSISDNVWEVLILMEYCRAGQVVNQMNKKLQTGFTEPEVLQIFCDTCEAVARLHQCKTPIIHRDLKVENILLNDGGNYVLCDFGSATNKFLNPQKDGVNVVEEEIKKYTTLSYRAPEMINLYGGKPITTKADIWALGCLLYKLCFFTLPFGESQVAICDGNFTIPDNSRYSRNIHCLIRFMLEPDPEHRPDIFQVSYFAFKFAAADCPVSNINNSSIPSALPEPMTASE

For `NC(=O)Nc1cc(-c2cccc(F)c2)sc1C(=O)N[C@H]1CCCNC1` [AZD7762], the Kd at BIKE [1] came to 33.1 nM; at AAK1 [3], 36.5 nM. The ΔTm at 12.5 µM on BIKE [2] stood at 12.6 °C; on GAK, 5.39 °C; at MPSK1, 3.46 °C; at AAK1 [4], 10.8 °C.
Turning to `COc1cc(Nc2ncc(F)c(Nc3ccc4c(n3)NC(=O)C(C)(C)O4)n2)cc(OC)c1OC` [Tamatinib], the ΔTm at 12.5 µM at BIKE [2] turned out to be 6.55 °C; on GAK, 3.48 °C; at MPSK1, 14.1 °C; on AAK1 [4] it was 7 °C.
On the same counts, the results for `COc1cc2c(N3CCN(C(=O)Nc4ccc(OC(C)C)cc4)CC3)ncnc2cc1OCCCN1CCCCC1` [Tandutinib] are 1.76 °C, 0.06 °C, 1.21 °C and 0.57 °C.
For `O=c1sn(-c2cccc3ccccc23)c(=O)n1Cc1ccccc1` [Tideglusib] the same measures were 0.245 °C, -0.487 °C, 0.443 °C and 0.24 °C.
On the same counts, the results for `O=C1NC(=O)[C@@H](c2cn3c4c(cccc24)CCC3)[C@@H]1c1c[nH]c2ccccc12` [Tivantinib] are 0.697 °C, -0.823 °C, 0.87 °C and 0.46 °C.
Take `COc1cc2nccc(Oc3ccc(NC(=O)Nc4cc(C)on4)c(Cl)c3)c2cc1OC` [Tivozanib]: the ΔTm at 12.5 µM came to 3.87 °C at BIKE [2], 6.98 °C on GAK, 1.4 °C at MPSK1 and 3.15 °C at AAK1 [4].
In the case of `C[C@@H]1CCN(C(=O)CC#N)C[C@@H]1N(C)c1ncnc2[nH]ccc12` [Tofacitinib], the ΔTm at 12.5 µM on BIKE [2] is 2.18 °C; on GAK, -0.58 °C; at MPSK1, 1.35 °C; on AAK1 [4], 0.68 °C.
On the same counts, the results for `CC(=O)Nc1cccc(-n2c(=O)n(C3CC3)c(=O)c3c(Nc4ccc(I)cc4F)n(C)c(=O)c(C)c32)c1` [Trametinib] are 0.423 °C, -0.66 °C, 0.827 °C and 0.367 °C.
On the same counts, the results for `CN[C@@H]1C[C@H]2O[C@@](C)([C@@H]1OC)n1c3ccccc3c3c4c(c5c6ccccc6n2c5c31)C(=O)N[C@H]4O` [UCN-01] are 13.1 °C, 4.03 °C, 4.49 °C and 9.91 °C.
For `Cc1cnc(Nc2ccc(F)cc2Cl)nc1-c1c[nH]c(C(=O)N[C@H](CO)c2cccc(Cl)c2)c1` [VX-11E] the same measures were 0.147 °C, -1.45 °C, 0.627 °C and -0.203 °C.
In the case of `COc1cc2/c(=N/c3ccc(Br)cc3F)nc[nH]c2cc1OCC1CCN(C)CC1` [Vandetanib], the ΔTm at 12.5 µM turned out to be 0.127 °C at BIKE [2], 1.75 °C on GAK, 1.1 °C at MPSK1 and 1.05 °C at AAK1 [4].
For `Clc1ccc(Nc2nnc(Cc3ccncc3)c3ccccc23)cc1` [Vatalanib] the same measures were 0.423 °C, 0.0567 °C, 0.513 °C and 0.303 °C.
For `CCCS(=O)(=O)Nc1ccc(F)c(C(=O)c2c[nH]c3ncc(-c4ccc(Cl)cc4)cc23)c1F` [Vemurafenib], the ΔTm at 12.5 µM at BIKE [2] was found to be 4.24 °C; on GAK, 2.66 °C; on MPSK1, 5.18 °C; on AAK1 [4], 2.06 °C.
On the same counts, the results for `CC[C@@H]1C(=O)N(C)c2cnc(Nc3ccc(C(=O)N[C@H]4CC[C@H](N5CCN(CC6CC6)CC5)CC4)cc3OC)nc2N1C(C)C` [Volasertib] are 3.48 °C, 2.74 °C, 4.59 °C and 3.06 °C.
On the same counts, the results for `CCn1c(=O)c(-c2cc[nH]n2)cc2c(C)nc(N)nc21` [Voxtalisib] are 0.73 °C, 0.99 °C, 0.32 °C and 0.657 °C.
On the same counts, the results for `FC(F)c1nc2ccccc2n1-c1nc(N2CCOCC2)nc(N2CCOCC2)n1` [ZSTK474] are 0.633 °C, 0.02 °C, 1.24 °C and 0.383 °C.
Regarding `CCS(=O)(=O)N1CC(CC#N)(n2cc(-c3ncnc4[nH]ccc34)cn2)C1` [baricitinib], the results for the ΔTm at 12.5 µM at BIKE [2] and at GAK were 10.2 °C and 2.06 °C, respectively. Moreover, at MPSK1 (12.5 µM), the MPSK1 was 4.053 °C. Besides, on AAK1 [4] (12.5 µM), the AAK1 amounted to 8.293 °C.
Turning to `COC(=O)c1ccc2c(c1)NC(=O)/C2=C(\Nc1ccc(N(C)C(=O)CN2CCN(C)CC2)cc1)c1ccccc1` [nintedanib], the ΔTm at 12.5 µM on BIKE [2] came to 7.61 °C; at GAK it was 0.58 °C; on MPSK1, 6.33 °C; at AAK1 [4] it was 1.78 °C.

These data come from PMC4780864, “Family-wide Structural Analysis of Human Numb-Associated Protein Kinases” (Structure(London, England:1993), 2016).
